Measurements taken from patent publication US7271274B2, “Phenolic antioxidants for the treatment of disorders including arthritis, asthma and coronary artery disease” (AhteroGenics, Inc., priority 2004, dated 2007).

What was measured:
[1] = clinical trials; cited from earlier work
[2] = tested on: murine model of allergic pulmonary inflammation; conditions: cited from earlier work
[3] = tested on: IL-1β; test: Cytokine screening: LPS-induced secretion of IL-1β from hPBMCs; assay type: cell-based; conditions: Homo sapiens, Biological Table 2, LPS 1 μg/ml, mean ± standard deviation
Experimental: (§1) Fresh cryopreserved hPBMCs (1 million cells/ml; Clonetics, Inc.) were pretreated with test compound for 1 hr in lymphocyte growth media-3 (Clonetics, Inc.), followed by stimulation with 1 μg/ml of LPS for another 2 hr in the presence of test compound. Conditioned media was collected and assayed for secreted TNF-α, IL-1β and […] using commercially available human ELISA kits (R&D Systems). Samples were measured in duplicate and data presented as mean ± standard deviation. Each experiment was repeated at least three times with similar results.

[4] = tested on: Male BALB/c mice; test: mBSA-induced delayed-type hypersensitivity (DTH) model of inflammation in mice; assay type: in vivo; conditions: vehicle swelling = 100%
Experimental: The methylated bovine serum albumin (mBSA)-induced delayed-type hypersensitivity (DTH) model of mice is generally used for screening compounds with anti-inflammatory effects (Sarnstrand et al., Pharmacol. Exp. Ther. 1999, 288, 1174–84). Compounds of Ex-1 and Ex-2 were tested in this model, dosed subcutaneously at 24 and 2 hrs prior to challenge at doses of 50 and 25 mg/kg with cyclosporin A (CSA) as positive control.
Male BALB/c mice (20–25 g) were sensitized on day 0 by intradermal abdominal injection of 100 μL of a 1:1 emulsion of mBSA (5 mg/ml) and Freund's complete adjuvant. On day 7, the mice were challenged by injecting 25 μL of mBSA (5 mg/ml) into the footpad of the right hindpaw and the left hindpaw was injected with saline. Mice were treated by s.c. injection of test compound 24 hrs and 2 hrs before the challenge. Twenty four hours after challenge mice were sacrificed by CO2 inhalation. The feet were removed by cutting just above the heel with scissors, and the mass of the saline-injected foot was subtracted from the mass of the mBSA injected foot to determine the amount of swelling that occurred in the latter. Inhibition of swelling for test compound group was calculated, taking the swelling of the vehicle-treated group as 100%. The results from the DTH model are summarized for examples 1 and 2 in Biological Table 4 using cyclosporine A (CSA) as a positive control.

[5] = tested on: VCAM-1; test: In Vitro VCAM-1 Assay - Method 1 (TNF-α stimulated endothelial cells, surface VCAM-1 ELISA); assay type: cell-based; conditions: Homo sapiens, Endothelial cell; HAEC or HPAEC, TNF-α 1 ng/ml with compound approximately 16 hours
Experimental: Cell Culture and compound dosing: Cultured primary human aortic (HAEC) or pulmonary (HPAEC) endothelial cells were obtained from Clonetics, Inc., and were used below passage 9. Cells were seeded in 96 well plates such that they would reach 90–95% confluency by the following day. On the following day the cells were stimulated with TNF-α (1 ng/ml) in the presence or absence of compounds dissolved in DMSO such that the final concentration of DMSO is 0.25% or less. To establish a dose curve for each compound, four concentrations in 2- to 5-fold increments were used. Cells were exposed to TNF-α and compounds for approximately 16 hours. The next day the cells were examined under microscope to score for visual signs of toxicity or cell stress.
Following 16 hr exposure to TNF-α and compound the media was discarded and the cells were washed once with Hanks Balanced Salt Solution (HBSS)/Phosphate buffered saline (PBS) (1:1). Primary antibodies against VCAM-1 (0.25 μg/ml in HBSS/PBS+5% FBS) were added and incubated for 30–60 minutes at 37° C. Cells were washed with HBSS/PBS three times, and secondary antibody Horse Radish Peroxidase (HRP)-conjugated goat anti-mouse IgG (1:500 in HBSS/PBS+5% FBS) were added and incubated for 30 minutes at 37° C. Cells were washed with HBSS/PBS four time and TMB substrate were added and incubated at room temperature in the dark until there was adequate development of blue color. The length of time of incubation was typically 5–15 minutes. 2N sulfuric acid was added to stop the color development and the data was collected by reading the absorbance on a BioRad ELISA plate reader at OD 450 nm. The results are expressed as IC50 values (the concentration (micromolar) of compound required to inhibit 50% of the maximal response of the control sample stimulated by TNF-α only). IC50's of tested compounds are tabulated in Biological Table 1.

[6] = tested on: Balb/C mice; test: In vivo asthma model (ovalbumin-sensitized mice, BAL fluid eosinophilia); conditions: 25 mg/kg, sc, qd; BALF eosinophilia vs vehicle control
Experimental: Balb/C mice (6–8 weeks old) were sensitized to ovalbumin (ova) (8 ug ova absorbed in 3.3 mg Alum inject) on days 0 and 5. On day 12, the mice were aerosol challenged with 0.5% ovalbumin dissolved in sterile saline for 1 hr in the AM, and then again in the PM (at least 4 hr apart). On day 14, the mice were anesthetized with ketamine/xylazine/acepromazine cocktail, exsanguinated, and then euthanized. Following blood collection, bronchoaveolar lavage (BAL) was performed on each animal. Total cell counts were conducted on the lavage fluid, which was subsequently diluted with cell media 1:1. Slides of the lavage fluid were made by spinning the samples with a cytospin centrifuge and then air drying. Cell differentials of the lavage fluid were determined by microscopic evaluation of hematoxylin and eosin-stained slides. Data are expressed as the % inhibition of eosinophilia in the BAL fluid compared to the vehicle control. […] The formulations used contained various mixtures of the following excipients (propylene glycol, polyethylene glycol, Tween 80, Glycofurol).

[7] = tested on: VCAM-1; test: In Vitro VCAM-1 Assay - Method 2 (19 h predosing, 4 h TNFα stimulation, surface VCAM-1); assay type: cell-based; conditions: Homo sapiens; HAEC or HPAEC, predosed 19 hours, TNFα 1.5 ng/ml 4 hours
Experimental: Cultured primary human aortic (HAEC) or pulmonary artery (HPAEC) endothelial cells are obtained from BioWhittaker (formerly Clonetics), and are used below passage 9. Cells are seeded in 96-well plates such that they will reach ˜95% confluency by the following day (i.e.10,000 cells/well). Compounds are reconstituted in DMSO (100%) and sonicated to ensure maximum dissolution. Dilutions are then made in DMSO to 500× of final concentrations. These stocks are then diluted 500× into cell culture media (EGM-2 Mv, BioWhittaker) and placed overnight in tissue culture incubator (37° C., 5% CO2) to allow maximum dissolution).
Media is removed from the cells and replaced with the prewarmed dosing media. Cells are predosed in this manner for 19 hours at 37° C., 5% CO2. Remove media again from the cells and replace with prepared dosing media containing TNFα (1.5 ng/ml). Allow stimulation to continue for 4 hours at 37° C., 5% CO2. Media is removed and saved for evaluation of secreted factors as needed. Cells are used for quantitating surface VCAM-1, followed by Hoescht nuclear stain for cell number to determine toxicity. Assay for surface VCAM-1 continues as described in Method 1. IC50's of tested compounds are tabulated in Biological Table 1.

[8] = tested on: IL-6; test: Cytokine screening: LPS-induced secretion of IL-6 from hPBMCs; assay type: cell-based; conditions: Homo sapiens, Biological Table 2, LPS 1 μg/ml, mean ± standard deviation
Experimental: as §1

[9] = tested on: TNF-α; test: Cytokine screening: LPS-induced secretion of TNF-α from hPBMCs; assay type: cell-based; conditions: Homo sapiens
Experimental: as §1

[10] = tested on: Female Lewis rats; test: In vivo rheumatoid arthritis model (Freund's complete adjuvant, paw swelling); conditions: paw swelling vs vehicle control
Experimental: Female Lewis rats (200–250 g) were sensitized with Freund's complete adjuvant (100 ug) by subcutaneous injection at the base of the tail. Paw swelling was monitored by measuring the volume of each foot with a plethysmometer on days 5, 8, 12–15. Animals were euthanized on day 15. […] Data is expressed as the % inhibition of paw swelling (AUC of the paw volume vs time curve d5–15) compared with vehicle control. The formulations used contained various mixtures of the following excipients (propylene glycol, polyethylene glycol, Tween 80, Glycofurol).

[11] = tested on: LDL receptor-deficient rabbits; conditions: cited from earlier work
[12] = 25 mg/Kg s.c. 24 hrs and 2 hrs before challenge
[13] = 50 mg/Kg s.c. 24 hrs and 2 hrs before challenge
[14] = Biological Table 3, LPS-induced secretion from hPBMN cells, average of at least three determinations
[15] = Biological Table 2, hPBMCs, LPS 1 μg/ml, mean ± standard deviation

| Compound | melting point | IC50 [3] | Percent Inhibition (of swelling) [4, 12] | Percent Inhibition (of swelling) [4, 13] | IC50 [5] | Inhibition of BAL fluid eosinophilia (asthma model) [6] | IC50 [8] | IC50 [9, 14] | IC50 [9, 15] | other results |
| --- | --- | --- | --- | --- | --- | --- | --- | --- | --- | --- |
| CC(C)(Sc1cc(C(C)(C)C)c(O)c(C(C)(C)C)c1)Sc1cc(C(C)(C)C)c(OC(=O)CCC(=O)O)c(C(C)(C)C)c1 [AGI-1067] | – | – | – | – | – | – | – | – | – | QTc prolongation [1]: did not cause QTc prolongation |
| COc1cc(CC(=O)N[C@@H](CC(C)C)c2cc(CCC(=O)O)on2)ccc1NC(=O)Nc1ccccc1C [CP-664511] | – | – | – | – | – | – | – | – | – | airway eosinophil infiltration [2]: inhibited airway eosinophil infiltration |
| CC(C)(Sc1cc(C(C)(C)C)c(O)c(C(C)(C)C)c1)Sc1cc(C(C)(C)C)c(OC[C@H](O)[C@@H](O)CO)c(C(C)(C)C)c1 [Ex-1, 4-{2,6-Di-tert-butyl-4-[1-(3,5-di-tert-butyl-4-hydroxyphenylsulfanyl)-1-methylethyl-sulfanyl]phenoxy}butane-1,2(S),3(S)-triol] | 69 to 71 °C | 7.7 ± 0.6 µM | +40% | +65% | 7 µM | 87 percentage | 1.7 ± 0.9 µM | 5.1 µM | 4 ± 1 µM | IC50 [7]: 9 µM |
| CC(C)(Sc1cc(C(C)(C)C)c(O)c(C(C)(C)C)c1)Sc1cc(C(C)(C)C)c(OC[C@@H](O)[C@H](O)CO)c(C(C)(C)C)c1 [Ex-2, 4-{2,6-Di-tert-butyl-4-[1-(3,5-di-tert-butyl-4-hydroxyphenylsulfanyl)-1-methylethylsulfanyl]-phenoxy}butane-1,2(R),3(R)-triol] | 69 to 71 °C | 8 µM | +25% | +60% | 5 µM | 65 percentage | 1.2 ± 0.3 µM | 1.6 µM | 3.3 ± 0.3 µM | Rheumatoid arthritis model (25 mg/kg, sc, qd, inhibition of paw swelling in percentage) [10]: 75 percentage |
| CC(C)(Sc1cc(C(C)(C)C)c(O)c(C(C)(C)C)c1)Sc1cc(C(C)(C)C)c(O)c(C(C)(C)C)c1 [probucol, 4,4′-(isopropylidenedithio) bis(2,6-di-tert-butylphenol)] | – | – | – | – | – | – | – | – | – | progression of atherosclerosis [11]: slow the progression of atherosclerosis |
